Assay [1] concerns Root Knot Nematode. Nature of the assay: Sweet potato field trial, root knot nematode count at harvest. The format is in vivo, Meloidogyne enterolobii. As for the experimental part: (§1) Location: The field trial was conducted on a farm in Woodington, NC. The field was confirmed positive for Meloidogyne enterolobii through NCDA Nematode Assay Lab analysis.
(§2) Trial set-up: Sweet potatoes (cv. Covington) were planted at 11 inch within row spacing and 42 inch rows. Plots were 4 rows wide by 10 ft long, with 10 feet between plots. Plots were maintained by the grower collaborator using standard agronomic practices. Vigor data, soil samples for mid-season nematode counts, and harvest data was collected. At harvest, the middle two rows of each plot were dug by hand and tubers assessed. Data were analyzed, plotted, and effect of treatment on yield and nematode variables was assessed through mean separation in R (v. 3.6.2).
(§3) At harvest a soil sample from each plot was collected and 100 cc of soil extracted to determine nematode populations. Three genera of nematode were observed (RKN, stunt and lesion). Counts for the two highest population species, RKN and Lesion at the harvest sampling are reported per 100 g of soil. Population counts of RKN, lesion, and stunt nematode were transformed (log 10(n+1)) prior to analysis to fit assumptions of normality.

In assay [2] the test system is Lesion Nematode. Put plainly: Sweet potato field trial, lesion nematode count at harvest. The assay is classed as in vivo. The procedure: as §1, §2, §3
For assay [3], the system named is Sweet potatoes (cv. Covington). Nature of the assay: Sweet potato field trial, yield. The assay is classed as in vivo. The procedure: as §1, §2
Formulations and Application rates: Six different wrap and plant formulations and 2 control treatment were tested.
For each plot the tuber were collect and sorted into 2 groups: #1 grade and cutters/jumbos. In addition, the number of #1 tubers were counted.

Structures are written as SMILES. “And” between values parts separate entries of the source, which are not always exact repeats. Equal entries are not always repeated.

In the case of `O=C(NCCc1ncc(C(F)(F)F)cc1Cl)c1ccccc1C(F)(F)F` [Treatment 3, Fluopyram], in assay [1] (Table 12), the “Average RKN Population at Harvest” value was 12.5 /100 cc soil. Besides, in assay [1] (average of 4 plots), the “RKN Population, Average” value is 12.5. The “Average Lesion Population at Harvest” value in assay [2] (Table 12) is 118.75 /100 cc soil. For the same compound, the “Lesion Population, Average” value in assay [2] (average of 4 plots) is on record as 118.75. Further, the “Average Total Yield” value in assay [3] (Table 12) was 22.1. In addition, in assay [3] (average of 4 plots), the “Yield #1 Tubers, Average” value amounted to 9.8 kg. Also, in assay [3] (single plot), the “No. of #1 tubers” value is 32 and 36 and 30 and 38; the “Total Yield” value was 22.8 kg and 28.05 kg and 20.9 kg and 16.8 kg; the “Yield of #1” value is 9.35 kg and 12.15 kg and 9.75 kg and 8.1 kg; the “Yield of Jumbo & Canners” value was 13.45 kg and 15.9 kg and 11.15 kg and 8.7 kg. The “Yield #1 Tubers” value in assay [3] (single plot, Table 10, listed as Grower Standard) is 8.1 kg and 9.4 kg and 12.2 kg and 9.8 kg.
